Data from US10793599B2, “MPHOSPH1-derived peptide, and vaccine including same” (OncoTherapy Science, Inc., priority 2015, dated 2020).
“Also recorded” adds a separate entry of the source.

How the values were obtained:
peptide-pulsed C1R-A11 [1] = test: In vitro CTL induction, IFN-gamma ELISPOT assay (HLA-A*11:01); type: cell-based, human; details: CD8 positive T cells of HLA-A*11:01-positive donors after three stimulations with peptide-pulsed DCs, against peptide-pulsed C1R-A11
Method: (§1) Monocyte-derived dendritic cells (DCs) were used as the antigen-presenting cell to induce a specific cytotoxic T lymphocyte (CTL) response against peptides presented on human leukocyte antigens (HLAs). As already reported in literatures, DCs were generated in vitro (Nakahara S et al., Cancer Res 2003, 63(14): 4112-8). Specifically, peripheral-blood mononuclear cells (PBMCs) collected from healthy volunteers (HLA-A*11:01-positive) with the Ficoll-Paque plus solution (Pharmacia) were seeded in plastic tissue culture dishes (Corning) to let the monocytes in the PBMCs adhere to the dishes. This was cultured in the presence of 1000 IU/ml granulocyte macrophage colony-stimulating factor (R&D System) and 1000 IU/ml interleukin (IL)-4 (R&D System) for seven days. An AIM-V medium (Invitrogen) containing 5% inactivated AB-type serum (ABS) was used as the medium. DCs that were induced to differentiate from monocytes using the cytokines were pulsed with 20 micro-g/ml of each synthesized peptide (37 degrees C., three hours). Peptide pulsing was carried out in an AIM-V medium containing 3 micro-g/ml beta 2-microglobulin. These peptide-pulsed DCs were inactivated by X-ray irradiation (20 Gy), mixed in a 1:20 ratio with autologous CD8 positive T cells obtained by positive selection using the CD8 Positive Isolation Kit (Invitrogen) (1.5×10^4 DCs and 3×10^5 CD8 positive T cells), and cultured in a 48-well plate (Corning). Each well contained 0.5 ml of the 5% ABS/AIM-V medium, and IL-7 (R&D System) was added thereto (final concentration: 10 ng/ml). Two days after the start of the culture, IL-2 (Novartis) was added (final concentration: 20 IU/ml). On day 7 and day 14 of culture, the CD8 positive T cells were further stimulated with peptide-pulsed DCs. The DCs were prepared at the time of use by the same method as above. After day 21 (after three DC stimulations), IFN-gamma production against the peptide-pulsed C1R-A11 was confirmed using human interferon (IFN)-gamma enzyme-linked immunospot (ELISPOT) assay (Tanaka H et al., Br J Cancer 2001, 84(1): 94-9; Umano Y et al., Br J Cancer 2001, 84(8): 1052-7; Uchida N et al., Clin Cancer Res 2004, 10(24): 8577-86; Suda T et al., Cancer Sci 2006, 97(5): 411-9; Watanabe T et al., Cancer Sci 2005, 96(8): 498-506).
(§2) Peptide-pulsed C1R-A11 (1×10^4 cells/well) was prepared as the target cell. The IFN-gamma ELISPOT assay and IFN-gamma ELISA were performed according to the assay kit manufacturer's manual.

peptide-pulsed C1R-A33 [2] = test: In vitro CTL induction, IFN-gamma ELISPOT assay (HLA-A*33:03); type: cell-based, human; details: CD8 positive T cells of HLA-A*33:03-positive donors after three stimulations with peptide-pulsed DCs, against peptide-pulsed C1R-A33
Method: as §1, with “(HLA-A*33:03-positive)” for “(HLA-A*11:01-positive)”, “there” for “thereto”, “C1R-A33” for “C1R-A11”, “1052-7:” for “1052-7;”
(§3) Peptide-pulsed C1R-A33 (1×10^4 cells/well) was prepared as the target cell. The IFN-gamma ELISPOT assay and IFN-gamma ELISA assay were performed according to the assay kit manufacturer's manual.

peptide-pulsed C1R-A11 [3] = test: IFN-gamma ELISA of CTL lines and CTL clones (HLA-A*11:01); type: cell-based, human; details: for peptide-specific IFN-gamma production of CTL clone (ELISA): CTL clone by limiting dilution, against C1R-A11 pulsed with the peptide; for IFN-gamma production by CTL line (ELISA): CTL line against C1R-A11 pulsed with the peptide
Method: (§4) CTLs were propagated using methods similar to those reported by Riddell et al. (Walter E A et al., N Engl J Med 1995, 333(16): 1038-44; Riddell S R et al., Nat Med 1996, 2(2): 216-23). The CTLs were cultured in 25 ml 5% ABS/AIM-V medium together with two types of Mitomycin C-treated human B lymphoblastoid cell lines (5×10^6 cells/25 ml medium each) and an anti-CD3 antibody (final concentration: 40 ng/ml). On the day after beginning of the culturing, IL-2 (final concentration: 120 IU/ml) was added to the culture. On days 5, 8 and 11, the medium was changed to a 5% ABS/AIM-V medium containing IL-2 (final concentration: 30 IU/ml) (Tanaka H et al., Br J Cancer 2001, 84(1): 94-9; Umano Y et al., Br J Cancer 2001, 84(8): 1052-7; Uchida N et al., Clin Cancer Res 2004, 10(24): 8577-86; Suda T et al., Cancer Sci 2006, 97(5): 411-9; Watanabe T et al., Cancer Sci 2005, 96(8): 498-506).
(§5) After induction of CTLs in vitro, the CTLs were seeded onto 96 round-bottomed microtiter plates (Nalge Nunc International) at 1 cell/well or 10 cells/well. The CTLs were cultured with two types of Mitomycin C-treated human B lymphoblastoid cell lines (1×10^4 cells/well each) in a total of 150 micro-1/well 5% ABS/AIM-V medium with an anti-CD3 antibody (final concentration: 30 ng/ml) and IL-2 (final concentration: 125 IU/ml). Ten days later, 50 micro-15% ABS/AIM-V medium containing 500 IU/ml IL-2 was added to the culture. On day 14 or after.
as §2

[4] = test system: COS7 cells expressing MPHOSPH1 and HLA-A*11:01; test: IFN-gamma production of CTL clone against target cells expressing MPHOSPH1 and HLA-A*11:01; type: cell-based, African green monkey
Method: as §2
A cDNA encoding the MPHOSPH1 or HLA-A*11:01 gene was amplified by PCR. The PCR-amplified product was each incorporated into an expression vector. Either or both of the MPHOSPH1 gene-expressing vector and the HLA-A*11:01 gene-expressing vector were introduced into COS7, which is a cell line negative for HLA, using Lipofectamine 2000 (Invitrogen) following the manufacturer's recommended protocol. On the day after gene introduction, COS7 cells were detached and harvested using versene (Invitrogen), and used as the target cell for confirmation of IFN-gamma production (5×10^4 cells/well).

peptide-pulsed C1R-A33 [5] = test: IFN-gamma ELISA of CTL lines and CTL clones (HLA-A*33:03); type: cell-based, human; details: listed as MPHOSPH1-A33-10-57
Method: as §4
as §5, with “micro-l/well” for “micro-1/well”, “micro-l 5%” for “micro-15%”, “culture.” for “culture. On day 14 or after.”
as §3

TINEFQNLK (a peptide derived from MPHOSPH1) [SEQ ID NO: 4]
peptide-specific IFN-gamma production (ELISPOT) (peptide-pulsed C1R-A11 [1]; listed as MPHOSPH1-A11-9-739): peptide-specific IFN-gamma production was not observed

TSSLIINNK (a peptide derived from MPHOSPH1) [SEQ ID NO: 5]
peptide-specific IFN-gamma production (ELISPOT) (peptide-pulsed C1R-A11 [1]; listed as MPHOSPH1-A11-9-762): Peptide-specific IFN-gamma production was observed

SIIGVNLATK (a peptide derived from MPHOSPH1) [SEQ ID NO: 53]
peptide-specific IFN-gamma production (ELISPOT) (peptide-pulsed C1R-A11 [1]; listed as MPHOSPH1-A11-10-1675): Peptide-specific IFN-gamma production was observed

SSKKTYSLR (a peptide derived from MPHOSPH1) [SEQ ID NO: 48]
peptide-specific IFN-gamma production (ELISPOT) (peptide-pulsed C1R-A33 [2]; listed as MPHOSPH1-A33-9-1663): peptide-specific IFN-gamma production was not observed

STSFEISRNK (a peptide derived from MPHOSPH1) [SEQ ID NO: 52]
peptide-specific IFN-gamma production (ELISPOT) (peptide-pulsed C1R-A11 [1]; listed as MPHOSPH1-A11-10-1546): Peptide-specific IFN-gamma production was observed
peptide-specific IFN-gamma production of CTL clone (ELISA) (peptide-pulsed C1R-A11 [3]; listed as MPHOSPH1-A11-10-1546): showed a peptide-specific IFN-gamma production
IFN-gamma production by CTL line (ELISA) (peptide-pulsed C1R-A11 [3]; listed as MPHOSPH1-A11-10-1546): CTL lines that produce IFN-gamma in a peptide-specific manner were established; also recorded: observed
IFN-gamma production of peptide-specific CTL clone ([4]; against COS7 cells expressing both MPHOSPH1 and HLA-A*11:01): showed IFN-gamma production
IFN-gamma production of peptide-specific CTL clone ([4]; against negative control COS7 cells expressing either one of MPHOSPH1 and HLA-A*11:01, listed as MPHOSPH1-A11-10-1546): a significant IFN-gamma production was not shown; also recorded: a significant IFN-gamma production was not observed

CILGRLSEK (a peptide derived from MPHOSPH1) [SEQ ID NO: 27]
peptide-specific IFN-gamma production (ELISPOT) (peptide-pulsed C1R-A11 [1]; listed as MPHOSPH1-A11-9-96): Peptide-specific IFN-gamma production was observed

DLQKWREER (a peptide derived from MPHOSPH1) [SEQ ID NO: 119]
peptide-specific IFN-gamma production (ELISPOT) (peptide-pulsed C1R-A33 [2]; listed as MPHOSPH1-A33-9-1474): Peptide-specific IFN-gamma production was observed

DYLQVCLRIR (a peptide derived from MPHOSPH1) [SEQ ID NO: 170]
peptide-specific IFN-gamma production (ELISPOT) (peptide-pulsed C1R-A33 [2]; listed as MPHOSPH1-A33-10-57): Peptide-specific IFN-gamma production was observed
peptide-specific IFN-gamma production of CTL clone (ELISA) (peptide-pulsed C1R-A33 [5]; CTL clone by limiting dilution, against C1R-A33 pulsed with the peptide): showed a peptide-specific IFN-gamma production
IFN-gamma production by CTL line (ELISA) (peptide-pulsed C1R-A33 [5]; CTL line against C1R-A33 pulsed with the peptide): CTL lines that produce IFN-gamma in a peptide-specific manner were established; also recorded: observed

SSARTQNLK (a peptide derived from MPHOSPH1) [SEQ ID NO: 12]
peptide-specific IFN-gamma production (ELISPOT) (peptide-pulsed C1R-A11 [1]; listed as MPHOSPH1-A11-9-1227): Peptide-specific IFN-gamma production was observed
peptide-specific IFN-gamma production of CTL clone (ELISA) (peptide-pulsed C1R-A11 [3]; listed as MPHOSPH1-A11-9-1227): showed a peptide-specific IFN-gamma production
IFN-gamma production by CTL line (ELISA) (peptide-pulsed C1R-A11 [3]; listed as MPHOSPH1-A11-9-1227): CTL lines that produce IFN-gamma in a peptide-specific manner were established; also recorded: observed
